Measured values: US20150362491A1, “METHODS AND ASSAYS RELATING TO RNF216” (THE GENERAL HOSPITAL CORPORATION, priority 2013, published 2015)

Tests used:
zebrafish embryos = assay: zebrafish embryo morpholino knock-down and human mRNA rescue phenotyping; format: in vivo; settings: for organization of the cerebellum (axonal tracts) / size of the optic tectum: 3 d.p.f., anti-α acetylated tubulin staining
Protocol: Zebrafish Investigation. All experiments were carried out with the approval of the Institutional Animal Care and Use Committee. Morpholino oligos (MO) for silencing of zebrafish rnf216 and otud4 were injected either alone or with wild-type (WT) or mutant human mRNA for RNF216, OTUD4, or both.
Morpholino oligonucleotide design. Morpholino oligos were obtained from Gene Tools, LLC (Philomath, Oreg., USA). Reciprocal BLAST against the zebrafish genome identified a sole zebrafish ortholog of […] (ENSDARG00000087893, 59% similarity, 46% identity). The antisense MO used for the silencing of zebrafish rnf216 targeted the intron 5′ donor splice site of the gene: […] (SEQ ID NO: 7).
(§1) Similar to rnf216, a sole ortholog of the human transcript for OTUD4 was identified in zebrafish (73% similarity, 61% identity). […] The MO for otud4 targeted the donor splice site of intron 2: […] (SEQ ID NO: 8).
Zebrafish embryo injections. Zebrafish were maintained and mated according to standard procedures.^49 Wild-type zebrafish embryos were injected at the 1-4 cell stage with 1 nl diluted MO and 0.5% phenol red. A dose of 6 ng of rnf216 or otud4-targeting MO was used as it gave the best rate of silencing and the minimum rate of mortality among the tested working dilutions (4-10 ng). For the epistatic interaction experiments, a cocktail containing 6 ng each of rnf216- and otud4-targeting MO was used.
For RNA rescue experiments, human wild-type or mutant RNF216 (NM_207116.2) and OTUD4 (NM_001102653.1) were cloned into the pCS2+ expression vector and transcribed in vitro using the SP6 Message Machine Kit (Ambion) to produce capped mRNA, and 200 pg of mRNA was injected for the rescue experiments.
(§2) Zebrafish embryo phenotyping. Injected embryos were scored at 3 days post fertilization for microphthalmia by measuring the area of the eye cup. For immunofluorescence studies, embryos were fixed in Dent's fixative (80% methanol, 20% dimethylsulfoxide) overnight at 4° C. After rehydration with decreasing series of methanol in PBS, the embryos were washed with PBS, permeabilized with 10 μg/ml proteinase K, and postfixed with 4% PFA. Embryos were then washed twice with IF buffer (0.1% Tween-20, 1% BSA in 1×PBS) for 10 min at room temperature. After incubation in blocking solution (10% FBS, 1% BSA in 1×PBS) for 1 h at room temperature, embryos were incubated with anti-α acetylated tubulin (1:1000; T7451, Sigma-Aldrich), overnight at 4° C. After two washes in IF buffer for 10 min, embryos were incubated with Alexa Fluor goat anti-mouse IgG (1:1000; A21207, A11001, Invitrogen) for 1 h at room temperature. Image acquisition and analysis was performed using Nikon NIS-Elements Advanced Research software. For each test, 50-100 embryos were injected and scored by two investigators who were blind to the injection cocktail. All experiments were performed 2-3 times and statistical significance was calculated using Student's t-test.

[1] = system: otud4 endogenous transcript; assay: efficiency of the morpholinos (splicing of endogenous transcript, gel); format: in vivo, zebrafish; settings: otud4 MO 4-10 ng; intron 5 retained
Protocol: FIG. 8B depicts a gel of the results of injection of the otud4 MO (4-10 ng), which reduces normal splicing of the endogenous transcript by 90% and favors aberrant splicing resulting in a transcript where intron 5 (73 bp in size) is retained.
as §1

[2] = system: rnf216 and rnf216+otud4 (DMO) morphants; assay: in vivo zebrafish assay of neuronal survival and degeneration, SFN co-injected into morphants; settings: for morphants with optic tectum defects: 3 dpf
Protocol: Zebrafish embryo injections. Zebrafish were maintained and mated according to standard procedures.^49 Wild-type zebrafish embryos were injected at the 1-4 cell stage with 1 nl diluted MO and 0.5% phenol red. […] For the epistatic interaction experiments, a cocktail containing 6 ng each of rnf216- and otud4-targeting MO was used.
as §2
This hypothesis will be tested in Rnf216^−/− and Otud4^−/− mice.

[3] = system: pituitary response to GnRH; assay: reproductive endocrine phenotyping with exogenous GnRH; format: in vivo, human
Protocol: Reproductive Endocrine Phenotyping. Subjects 2, 6, and 8 underwent blood sampling every 10-15 minutes for 3.25-12 h to examine the frequency, amplitude, and morphology of endogenous GnRH-induced luteinizing hormone (LH) pulse patterns. Pulses of LH secretion were identified using a modified version of the method of Santen and Bardin.^45-46 Subjects 1, 2, 6, and 8 received exogenous, pulsatile GnRH with monitoring of gonadotropin responses as described previously.^47-48 Hormone assays were performed as described in ref 48; the Second International Reference Preparation was used as the standard for LH and FSH.

[4] = system: pituitary response to GnRH; settings: Subject 3, cited from earlier work
[5] = treatment of rnf216 and DMO morphants with SFN

Compound: otud4 MO: splice-blocking morpholino against zebrafish otud4: TACCCGAAGGAATTTGCGCACCATT (SEQ ID NO: 8) (all phosphorodiamidate morpholino (PMO))
- organization of the cerebellum (axonal tracts) (zebrafish embryos): cerebellar defects
- size of the optic tectum (zebrafish embryos): reduction in size of the optic tectum
- reduction of normal splicing of the endogenous transcript [1]: 90%

Compound: C[S@@+]([O-])CCCCN=C=S [SFN, 1-isothio-cyanato-4(R)-methylsulfinylbutane]
- morphants with optic tectum defects ([2]; DMO (rnf216+otud4) morphants co-injected with SFN, from 41% without SFN, p<0.001): 15%
- cerebellar disorganization phenotype ([2]; co-injection of SFN with DMO): failed to ameliorate
- cerebellar disorganization phenotype ([2]; co-injection of SFN with rnf216 MO): failed to ameliorate
- morphants with optic tectum defects ([2]; rnf216 morphants co-injected with SFN, from 32% without SFN, p<0.001): 15%
- cerebellar degeneration phenotype (FIG. 10E) [2, 5]: not the cerebellar degeneration phenotype
- optic tectum phenotype (FIG. 10D) [2, 5]: rescues the optic tectum phenotype

Compound: gonadotropin-releasing hormone (QHWSYGLRPG; Gonadoliberin-1; UniProt P01148 24-33, looked up) [GnRH]
- LH response to exogenous GnRH at a standard dose ([3]; Subject 6): immediate robust increase in LH
- testicular volumes ([3]; Subject 8, exogenous pulsatile GnRH 25 to 600 ng/kg q2 h over 2 y, from 2 mL): 8 mL
- gonadotropin responses to pulsatile exogenous GnRH over 7 days ([3]; Subjects 1 and 2, bedridden, late in the course of disease): failed to exhibit gonadotropin responses
- LH after GnRH ([4]; 90 min after GnRH, baseline 0.06 IU/L): 5.8 IU/L
- FSH after GnRH ([4]; 120 min, baseline 0.14 IU/L): 2.0 IU/L

Compound: rnf216 MO: antisense morpholino silencing zebrafish rnf216, donor splice site: CAGAAAATAGTTTGTGCTTACACAT (SEQ ID NO: 7) (all phosphorodiamidate morpholino (PMO))
- morphants with optic tectum defects ([2]; morphants without SFN): 32%
- organization of the cerebellum (axonal tracts) (zebrafish embryos): disorganization of axonal tracts in the cerebellum
- size of the optic tectum (zebrafish embryos): reduction in size of the optic tectum

Compound: human RNF216 mRNA: capped wild-type human RNF216 (NM—207116.2) mRNA transcribed in vitro, 200 pg injected
- rescue of the phenotypes induced by double MO injection (zebrafish embryos; co-injection of mRNA with double MO): rescued all phenotypes
- rescue of the tectal phenotype (zebrafish embryos; co-injection of mRNA with rnf216 MO): fully rescued
